Measured values taken from patent publication US20040081973A1, “Cloning and characterization of a novel BK channel isoform highly expressed in glioma cells” (priority 2002, published 2004).
Values belong to the compound of their own block, whether it stands above or below them.

Assays:
[1] = system: Kca current; conditions: CEFs transformed with Rous sarcoma virus (Repp et al., 1993); cited from earlier work
[2] = target: T1, gBK (Homo sapiens, UniProt Q12791); assay: Tetrandrine inhibition of gBK currents in outside-out patches; assay type: cell-based; conditions: 3 uM tetrandrine, voltage steps to +120 mV
T1 construct: Outside-out patches were isolated from STTG-1 cells; endogenous in cells
Description: Outside-out patches were isolated from STTG-1 cells and the voltage dependence of gBK currents were isolated with different [Ca^2+]i. Currents were integrated over the period of a voltage step and the average conductance was calculated from these areas (Ransom and Sontheimer, 2002). For each patch, 5-20 families of current traces over a range of voltages were obtained and the average conductance values at each membrane potential were determined. The normalized conductance was plotted as a function of membrane potential (activation curves) and fit to the Boltzman equation to obtain half-maximal voltages, V0.5. A total of 45 outside-out patches and their corresponding activation curves with [Ca^2+]i of 0 (10 mM EGTA added), 1.5×10−7 M and 2.1×10−6 M were determined. […] (FIGS. 11A and 11B). For comparison, the same set of experiments was performed on the hbr5 BK channel (Ransom and Sontheimer, 2002). V0.5 for hbr5 BK channel at [Ca^2+]i of 0 (10 mM EGTA added), 1.5×10−7 M and 2.1×10−6 M were +118 mV, +52 mV and −23 mV (FIGS. 12A and 12B).
If gBK channels are associated with β-subunits, then they should be sensitive to tetrandrine, a plant alkaloid. 3 uM tetrandrine has been reported to inhibit β-subunit-containing channels over 50%.

[3] = target: T2, hbr5 (Homo sapiens, UniProt Q12791); assay: Tetrandrine inhibition of hbr5 currents in outside-out patches from HEK cells transfected with hbr5; assay type: cell-based; conditions: HEK293, 3 uM tetrandrine, voltage steps to +120 mV
T2 construct: expressed in transfected cells; host or cells: HEK cells

[4] = system: Kca; conditions: EGF and PDGF stimulation (Huang and Rane, 1994); cited from earlier work
[5] = target: glioma BK (gBK) channel, novel splice variant of hSlo alpha-subunit (human) (UniProt Q12791); assay: cell-based or functional assay
glioma BK (gBK) channel, novel splice variant of hSlo alpha-subunit (human), sequence (Q12791 other isoform, or with tags, fused parts or gaps mutant): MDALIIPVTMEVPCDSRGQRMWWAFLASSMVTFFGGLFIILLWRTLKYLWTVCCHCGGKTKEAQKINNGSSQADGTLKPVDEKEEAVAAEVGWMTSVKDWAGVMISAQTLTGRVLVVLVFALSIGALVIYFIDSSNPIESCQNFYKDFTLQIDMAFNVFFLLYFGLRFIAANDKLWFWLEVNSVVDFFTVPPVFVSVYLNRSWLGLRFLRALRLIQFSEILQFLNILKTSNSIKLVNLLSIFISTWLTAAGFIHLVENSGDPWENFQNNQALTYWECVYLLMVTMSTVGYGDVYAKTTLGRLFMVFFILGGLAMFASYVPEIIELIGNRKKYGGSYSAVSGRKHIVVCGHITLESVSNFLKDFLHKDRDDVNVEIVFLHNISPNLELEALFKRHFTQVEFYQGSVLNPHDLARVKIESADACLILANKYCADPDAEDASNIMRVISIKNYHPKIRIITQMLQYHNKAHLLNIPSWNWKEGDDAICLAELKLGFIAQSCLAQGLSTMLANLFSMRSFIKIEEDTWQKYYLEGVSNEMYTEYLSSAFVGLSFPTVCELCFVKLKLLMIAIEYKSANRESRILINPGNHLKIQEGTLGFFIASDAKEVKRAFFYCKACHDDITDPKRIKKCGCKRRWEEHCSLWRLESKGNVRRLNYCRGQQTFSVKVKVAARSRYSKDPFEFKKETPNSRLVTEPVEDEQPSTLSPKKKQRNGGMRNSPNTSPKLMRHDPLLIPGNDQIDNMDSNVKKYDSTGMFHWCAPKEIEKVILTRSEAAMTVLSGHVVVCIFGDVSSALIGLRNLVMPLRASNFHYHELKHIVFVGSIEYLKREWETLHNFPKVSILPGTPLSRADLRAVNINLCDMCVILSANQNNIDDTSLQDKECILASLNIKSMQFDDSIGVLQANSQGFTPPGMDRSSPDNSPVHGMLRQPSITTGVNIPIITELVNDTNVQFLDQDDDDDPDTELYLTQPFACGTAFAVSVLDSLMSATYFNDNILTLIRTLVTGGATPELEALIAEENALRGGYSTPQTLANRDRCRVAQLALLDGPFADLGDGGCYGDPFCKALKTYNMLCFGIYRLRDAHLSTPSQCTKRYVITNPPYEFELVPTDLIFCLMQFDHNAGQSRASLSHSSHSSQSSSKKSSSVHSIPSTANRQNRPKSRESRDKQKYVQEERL

T1 sequence (Q12791 1-1239 isoform Q12791-7): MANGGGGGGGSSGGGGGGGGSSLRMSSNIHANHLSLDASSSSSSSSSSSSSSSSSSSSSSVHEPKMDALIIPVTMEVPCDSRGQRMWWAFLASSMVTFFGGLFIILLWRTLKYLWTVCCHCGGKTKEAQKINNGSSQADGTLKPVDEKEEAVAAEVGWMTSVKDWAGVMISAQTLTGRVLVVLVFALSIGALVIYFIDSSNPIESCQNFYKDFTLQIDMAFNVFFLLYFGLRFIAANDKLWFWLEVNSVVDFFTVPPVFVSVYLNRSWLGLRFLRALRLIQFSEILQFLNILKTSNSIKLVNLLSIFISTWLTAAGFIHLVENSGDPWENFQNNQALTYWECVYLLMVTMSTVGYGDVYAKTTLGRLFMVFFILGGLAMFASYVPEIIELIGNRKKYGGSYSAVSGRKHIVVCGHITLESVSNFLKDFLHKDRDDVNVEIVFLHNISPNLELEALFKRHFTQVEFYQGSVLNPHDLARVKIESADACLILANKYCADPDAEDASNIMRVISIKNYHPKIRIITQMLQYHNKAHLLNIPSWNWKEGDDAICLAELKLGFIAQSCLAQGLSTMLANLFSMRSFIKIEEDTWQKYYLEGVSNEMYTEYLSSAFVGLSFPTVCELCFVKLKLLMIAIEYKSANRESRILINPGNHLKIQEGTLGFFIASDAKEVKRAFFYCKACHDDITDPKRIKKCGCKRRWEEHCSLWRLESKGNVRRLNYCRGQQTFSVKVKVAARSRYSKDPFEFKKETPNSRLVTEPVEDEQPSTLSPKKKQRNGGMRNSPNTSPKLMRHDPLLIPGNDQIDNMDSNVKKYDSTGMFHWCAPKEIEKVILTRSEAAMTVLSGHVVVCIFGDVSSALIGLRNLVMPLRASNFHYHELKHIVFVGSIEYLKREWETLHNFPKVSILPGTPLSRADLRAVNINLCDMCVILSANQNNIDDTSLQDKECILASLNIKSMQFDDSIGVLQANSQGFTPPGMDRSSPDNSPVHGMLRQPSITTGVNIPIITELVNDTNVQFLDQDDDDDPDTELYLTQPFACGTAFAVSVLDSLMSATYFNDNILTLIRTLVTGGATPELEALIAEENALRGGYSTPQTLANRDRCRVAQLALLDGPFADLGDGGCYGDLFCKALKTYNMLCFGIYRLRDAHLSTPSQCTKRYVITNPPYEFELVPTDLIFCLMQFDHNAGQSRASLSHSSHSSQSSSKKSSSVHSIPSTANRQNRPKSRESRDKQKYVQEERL
T2 sequence (Q12791 1-1207 isoform Q12791-4): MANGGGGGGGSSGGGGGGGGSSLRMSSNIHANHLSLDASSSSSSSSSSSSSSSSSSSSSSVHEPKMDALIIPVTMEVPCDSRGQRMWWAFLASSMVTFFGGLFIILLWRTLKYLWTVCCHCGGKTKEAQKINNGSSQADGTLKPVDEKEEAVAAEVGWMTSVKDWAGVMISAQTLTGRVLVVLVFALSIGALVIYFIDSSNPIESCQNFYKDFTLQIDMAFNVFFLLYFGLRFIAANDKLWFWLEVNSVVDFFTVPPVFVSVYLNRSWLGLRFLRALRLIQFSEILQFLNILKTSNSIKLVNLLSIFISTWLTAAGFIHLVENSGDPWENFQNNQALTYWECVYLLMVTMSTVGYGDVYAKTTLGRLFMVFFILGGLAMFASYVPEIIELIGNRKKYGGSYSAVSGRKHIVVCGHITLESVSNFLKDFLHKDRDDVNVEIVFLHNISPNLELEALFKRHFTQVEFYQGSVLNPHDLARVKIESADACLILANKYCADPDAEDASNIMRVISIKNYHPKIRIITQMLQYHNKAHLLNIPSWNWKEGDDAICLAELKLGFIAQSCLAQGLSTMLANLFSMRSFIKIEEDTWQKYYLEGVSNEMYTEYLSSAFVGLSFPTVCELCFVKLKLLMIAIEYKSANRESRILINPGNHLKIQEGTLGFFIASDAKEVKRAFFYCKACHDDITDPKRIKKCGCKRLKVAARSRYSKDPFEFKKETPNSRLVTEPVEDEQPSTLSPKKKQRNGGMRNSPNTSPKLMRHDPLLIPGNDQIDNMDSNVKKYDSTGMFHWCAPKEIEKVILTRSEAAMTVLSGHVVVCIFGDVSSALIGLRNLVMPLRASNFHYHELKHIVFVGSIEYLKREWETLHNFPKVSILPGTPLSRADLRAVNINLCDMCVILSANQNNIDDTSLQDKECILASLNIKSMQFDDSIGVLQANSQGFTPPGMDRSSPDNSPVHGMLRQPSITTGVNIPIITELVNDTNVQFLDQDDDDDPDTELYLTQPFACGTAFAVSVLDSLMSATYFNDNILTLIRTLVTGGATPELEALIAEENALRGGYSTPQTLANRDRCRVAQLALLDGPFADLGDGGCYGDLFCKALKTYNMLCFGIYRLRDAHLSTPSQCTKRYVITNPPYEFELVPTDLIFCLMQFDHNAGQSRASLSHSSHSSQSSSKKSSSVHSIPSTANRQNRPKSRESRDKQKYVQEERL

Compound: CC[N+](CC)(CC)CC [TEA]
IC50 [1]: 1800 µM

inhibition at 3 µM [2]: 63% | inhibition at 3 µM [3]: 14%
Compound: COc1ccc2cc1Oc1ccc(cc1)C[C@H]1c3cc(c(OC)cc3CCN1C)Oc1c(OC)c(OC)cc3c1[C@H](C2)N(C)CC3 [tetrandrine]

Compound: charybdotoxin [ChTX]
IC50 [1]: 0.019 µM | Effect on mitogenic stimulation [4]: inhibited the stimulatory effect of the mitogen

Compound: iberiotoxin (IbTX) (from UniProt P24663 1-37) (peptide)
inhibition of total outward currents in gBK injected oocytes by 100 nM IbTX [5]: > 60%
